Experimental data published in patent US12366570B2, “Cell-based ZNT8 assay” (THE JOHNS HOPKINS UNIVERSITY, priority 2019, dated 2025).

Assays:
[1] = system: EndoC-βH1 cells; experiment: Total cellular insulin content, HTRF insulin assay; type: cell-based, human; details: 24 hr
Protocol: GSIS and insulin quantification. EndoC-βH1 cells with dose titrations of Glc+PA, zinc or cytokines cocktail in a 96-well plate were switched to a Krebs buffer (Alfa Aesar, cat. #J67795). After cell starvation in Krebs buffer for 1 h, EndoC-βH1 cells were replaced with fresh Krebs buffer containing 20 mM glucose plus 45 μM IBMX. After 45 min, the Krebs buffer was collected for measurement of secreted insulin. Cells were then lysed by 100 μl/well Krebs buffer with 1% DDM. Total insulin content was measured in 100-fold diluted cell lysate, A homogeneous time resolved fluorescence (HTRF) based ultra-sensitive insulin kit (Cisbio, cat. #62IN2PEG) was used to detect both secreted and total insulin as described previously (60).

[2] = system: EndoC-βH1 cells; experiment: CellTox Green cytotoxicity assay; type: cell-based
Protocol: Cytotoxicity Assay. Cell culture and experiments were performed in a 96-well plate in culture media without phenol red (Sigma, Cat. #D4947). Cytotoxicity in cell culture after experimental manipulation was continuously monitored based on the change in the fluorescence intensity of a CellTox Green Dye (Promega, Cat. #G8741) that preferentially stained dead cells with a loss of membrane integrity. The dye was 1:1000 diluted in the culture medium and delivered directly to cells at the same time of dose titrations of Glc+PA, zinc and cytokines. CellTox fluorescence signals were recorded on a FlexStation-3 multi-mode microplate reader with eight replicates at 0, 1, 2, 4, 6, 8, 20, 24, 30, and 48 hr following dye and stressor additions. Viable cells in the control cell culture medium produced no appreciable increases in CellTox fluorescence due to an excellent tolerance of EndoC-βH1 cells to the dye. At the end of experiment, all cells were lysed by adding detergent (DDM) to 0.1% in each well, and the maximum CellTox fluorescence intensity was recoded and used for normalization of the CellTox fluorescence intensity.
(§1) SLC30A8 knockdown. To perform gene silencing by RNA interference, a master mix of Opti-MEM reduced serum-free medium (Gibco, cat. #31985-062) was pre-mixed with 0.4% RNAiMAX transfection reagent (Invitrogen, cat. #13778-100) and 75 nM ZnT8 targeting or scrambled siRNA (OriGene cat. #SR325944). The solution was then incubated at room temperature for 10 min to form siRNA-lipid complexes before 50 μl of the master mix was added to each well in a 96-well plate. Cells resuspended in standard culturing media were added in a 1:1 volume to give 7×10^4 cells per well. After 24 h, the transfection media were replaced with complete culturing media. After additional 2 days, cells were exposed to 1× cytokine cocktail, followed by immunoblotting and cytotoxicity analysis as described above.

[3] = system: ZnT8; experiment: Immunoblotting of ZnT8 (mAb20) in total cell lysate; type: cell-based, human; details: 24 hr
Protocol: Immunoblotting. Cells in a 96-well plate were directly resuspended in 50 μl/well 1× Laemmli Sample Buffer (Bio-Rad cat. #1610737). An aliquot of 15 μl SDS-lysate was loaded onto a precast protein gel for SDS-PAGE and subsequent immunoblotting using the following antibodies directed to ZnT8 (mAb20), tubulin (Invitrogen, Cat. #MA1-83256), calnexin (Proteintech, Cat. #10427-2-AP), BAP31 (Proteintech, Cat. #11200-1-AP), IA2 (Proteintech, Cat. #10584-1-AP), TMED3 (Proteintech, Cat. #21902-1-AP), VAMP2 (Proteintech, Cat. #10135-1-AP), Golgin97 (Proteintech, Cat. #12640-1-AP) and HLA-I (Proteintech, Cat. #15240-1-AP). Protein band intensity was measured using ImageJ, and the numerical value for each stressor-treated protein sample was normalized to the untreated sample on the same immunoblot.
as §1, with “After 24 h, the transfection media were replaced with complete culturing media. After additional 2 days, cells were exposed to 1× cytokine cocktail, followed by immunoblotting and cytotoxicity analysis as described above.” left out

[4] = system: endogenous ZnT8 in EndoC-βH1 cells; experiment: In-cell ZnT8-ELISA tracking the endogenous ZnT8 level under stressor exposure; type: cell-based, human
Protocol: Stressor exposures. PA-BSA conjugation was prepared by adding PA powder to a final concentration of 8 mM in 1.6 mM FFA-free BSA (Sigma, Cat. #A7030-50G) pre-dissolved in 135 mM NaCl, 3.6 mM KCl, 0.5 mM MgCl2, and 10 mM HEPES (pH 7.4). The mixture was incubated with gentle stir at 37° C. and then filter-sterilized and stored at 4° C. as described previously (79). When added to the cell culture, the PA-BSA mixture was diluted 13.3-fold with supplement of glucose to make a 1× Glc+PA solution containing 0.6 mM PA and 48 mM Glc. A cytokine cocktail was prepared before each experiment by mixing individual stock solutions of IL-1β, IFN-γ, IL-17, […] at respective concentrations used previously on human islets and EndoC-PHI cells (37). 1× cytokine cocktail in the culture medium contained 5 ng/ml IL-1β, 10 ng/ml TNF-α, 50 ng/ml IFN-γ and 100 ng/ml IL-17 All cytokines were provided by R&D Systems (Minneapolis, MN, USA). […] After a designated exposure period, the endogenous ZnT8 level in each well was analyzed along with stress-induced cytotoxicity, GSIS and cellular insulin content. […]
In-cell ELISAs. […] The HRP reaction was terminated at 5 min by transferring the reaction mixture to a 96-well opaque microplate for chemiluminescence quantification on a FlexStation-3 multi-mode microplate reader.

[5] = biological target: T1, ZnT8 (Homo sapiens, UniProt Q8IWU4); details: cited from earlier work
T1 sequence (Q8IWU4 1-369): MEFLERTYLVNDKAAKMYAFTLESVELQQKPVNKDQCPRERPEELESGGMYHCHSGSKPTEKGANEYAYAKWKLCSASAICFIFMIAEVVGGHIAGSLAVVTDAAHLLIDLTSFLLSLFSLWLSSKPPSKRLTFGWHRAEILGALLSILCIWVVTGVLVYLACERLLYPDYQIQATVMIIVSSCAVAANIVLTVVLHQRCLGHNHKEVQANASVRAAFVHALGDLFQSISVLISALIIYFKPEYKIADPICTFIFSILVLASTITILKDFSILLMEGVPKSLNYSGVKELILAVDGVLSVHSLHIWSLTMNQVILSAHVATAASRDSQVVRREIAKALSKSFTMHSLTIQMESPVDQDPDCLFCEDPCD

[6] = 1 μM epoxomicin with 1× cytokines

## CC[C@H](C)[C@H](NC(=O)[C@H]([C@@H](C)CC)N(C)C(C)=O)C(=O)N[C@H](C(=O)N[C@@H](CC(C)C)C(=O)[C@@]1(C)CO1)[C@@H](C)O [epoxomicin]
[1]; [6]
  cytokine-induced downregulation of insulin: blocked
[2]; combination of epoxomicin and 1× cytokine, 24 hr exposure
  damaged cells: 26.8%
[3]; [6]
  cytokine-induced downregulation of ZnT8: blocked
[3]; epoxomicin alone, 1 μM
  ZnT8 expression: neither altered ZnT8 expression

## [Zn] [zinc]
[4]; extracellular zinc from trace amount (EDTA chelation) to 600 μM
  endogenous ZnT8 level, dose profile: biphasic change
[4]; extracellular zinc up to 600 μM
  zinc concentration at the peak of the biphasic ZnT8 profile: around 10 μM
[1]; increasing stressor concentration
  cellular insulin content, dose profile: increased the insulin content
[2]; 600 μM zinc
  zinc toxicity (CellTox, FIG. 2F): zinc toxicity was evident
[2]; modest zinc exposure (<=200 μM), compared to untreated cells
  cell integrity (CellTox fluorescence): did not alter the cell integrity

B1: mAb39: anti-ZnT8 monoclonal antibody; heavy chain and light chain SEQ ID NOS:52 and 57 (antibody)
heavy: MGWSCIMFFLVATATDVHSQVQLQQPGAELVKPGASVKLSCKASGYSFTTYWMHWVKQRPGQGLEWVGDINPRNGRTNYNEKSKSKATLTVDISSSTVYMQVSSLTSEDSAVYYCAIWSGAMDYWGPGTSVTVSSAKTTAPSVYPLAPVCGDTTGSSVTLGCLVKGYFPEPVTLTWNSGSLSSDVHTFPALLQSGLYTLSSSVTVTTWPSQTITCNVAHPASSTKVDKKIEPRGSPTHKPCPPCPAPNLLGGPSVFIFPPKIKDVLMISLSPMVTCVVVDVSEDDPDVHVSWFVNNVEVHTAQTQTHREDYNSTIRVVSALPIQHQDWMSGKEFKCKVNNKALPAPIERTISKPKGPVRAPQVYVLPPPEEEMTKKQVTLTCMITDFMPEDIYVEWTNNGQTELNYKNTEPVLDSDGSYFMYSKLRVEKKNWVERNSYSCSVVHEGLHNHHTTKSFSRSPGK
light: MKLPVRLLVLMFWIPASSSDVVMTQTPLSLPVSLGDQPSISCKSSQSLVHNNGNTYLHWYLQKPGQSPKLLIYKVSNRFSGVPDRFSGSGSGTDFTLKISRVEAEDLGVYFCSQTTHVPPTFGGGTKLEIKRADAAPTVSIFPPSSEQLTSGGASVVCFLNNFYPKDINVKWKIDGSERQNGVLNSWTDQDSKDSTYSMSSTLTLTKDEYERHNSYTCEATHKTSTSPIVKSFNRGEC
modifications: mAb39 heavy chain; mAb39 light chain
[5]
  binding affinity: subnanomolar

B2: mAb20: anti-ZnT8 monoclonal antibody; heavy chain and light chain SEQ ID NOS:32 and 37 (antibody)
heavy: MDMRVPAQLLGLLLLWLRGARCQIQLVQSGPELKKPGETVKISCKASGYIFTNYPMHWVKQAPGKGLKWMGWINTYSGVPTHADDFKGRFAFSLETSANSAFLQINNLKNEDTATYFCTRSRITPTGGYAMDYWGQGTSVTVSSAKTTPPSVYPLAPGSAAQTNSMVTLGCLVKGYFPEPVTVTWNSGSLSSGVHTFPAVLQSDLYTLSSSVTVPSSTWPSETVTCNVAHPASSTKVDKKIVPRDCGCKPCICTVPEVSSVFIFPPKPKDVLTITLTPKVTCVVVDISKDDPEVQFSWFVDDVEVHTAQTQPREEQFNSTFRSVSELPIMHQDWLNGKEFKCRVNSAAFPAPIEKTISKTKGRPKAPQVYTIPPPKEQMAKDKVSLTCMITDFFPEDITVEWQWNGQPAENYKNTQPIMDTDGSYFVYSKLNVQKSNWEAGNTFTCSVLHEGLHNHHTEKSLSHSPGK
light: MDMRVPAQLLGLLLLWLRGARCDVVMTQTPLSLPVSLGDQASISCRSSQSLVHSNGNTYLHWYLQKPGQSPNLLISKVSNRFSGVPERFSGSGSGTDFTLKISRVEAEDLGVYFCSQNTHVPWTFGGGTKLEIKRADAAPTVSIFPPSSEQLTSGGASVVCFLNNFYPKDINVKWKIDGSERQNGVLNSWTDQDSKDSTYSMSSTLTLTKDEYERHNSYTCEATHKTSTSPIVKSFNRNEC
modifications: mAb20 heavy chain; mAb20 light chain
[5]
  binding affinity: subnanomolar
